Read-outs that look alike come from different tables or passages of the source. Each block holds one molecule with its values, some of them ahead of it.
Key:
IL-1β, human whole blood = assay: Whole blood assay for IL-1β production; type: cell-based; conditions: read-out: Whole human blood IC50
Experimental: The whole blood assay is a simple method for measuring the production of IL-1b (or other cytokines) and the activity of potential inhibitors. The complexity of this assay system, with its full complement of lymphoid and inflammatory cell types, spectrum of plasma proteins and red blood cells is an ideal in vitro representation of human in vivo physiologic conditions.
Pyrogen-free syringes (˜30 cc) Pyrogen-free sterile vacuum tubes containing lyophilized Na2EDTA (4.5 mg/10 ml tube) Human whole blood sample (˜30-50 cc) 1.5 ml eppendorf tubes Test compound stock solutions (˜25 mM in DMSO or other solvent) Endotoxin-free sodium chloride solution (0.9%) and HBSS Lipopolysaccharide (Sigma; Cat. # L-3012) stock solution at 1 mg/ml in HBSS
IL-1β ELISA Kit (R & D Systems; Cat # DLB50)
TNFα ELISA Kit (R & D Systems; Cat # DTA50)
Whole Blood Assay Experimental Procedure:
Set incubator or water bath at 30° C. Aliquot 0.25 ml of blood into 1.5 ml eppendorf tubes. Note: be sure to invert the whole blood sample tubes after every two aliquots. Differences in replicates may result if the cells sediment and are not uniformly suspended. Use of a positive displacement pipette will also minimize differences between replicate aliquots.
Prepare drug dilutions in sterile pyrogen-free saline by serial dilution. A dilution series which brackets the apparent Ki for a test compound determined in an ICE inhibition assay is generally used for the primary compound screen.
Add 25 μl test compound dilution or vehicle control and gently mix the sample. Then add 5.0 μl LPS solution (250 ng/ml stocked prepared fresh: 5.0 ng/ml final concentration LPS), and mix again. Incubate the tubes at 30° C. in a water bath for 16-18 hr with occasional mixing. Alternatively, the tubes can be placed in a rotator set at 4 rpm for the same incubation period. This assay should be set up in duplicate or triplicate with the following controls: negative control—no LPS; positive control—no test inhibitor; vehicle control—the highest concentration of DMSO or compound solvent used in the experiment. Additional saline is added to all control tubes to normalize volumes for both control and experimental whole blood test samples
After the incubation period, whole blood samples are centrifuged for 10 minutes at ˜2000 rpm in the microfuge, plasma is transferred to a fresh microfuge tube and centrifuged at 1000×g to pellet residual platelets if necessary. Plasma samples may be stored frozen at −70° C. prior to assay for cytokine levels by ELISA.
We have used R & D Systems (614 McKinley Place N.E. Minneapolis, Minn. 55413) Quantikine kits for measurement of IL-1β and TNF-α. The assays are performed according to the manufacturer's directions.
We have observed IL-1β levels of ˜1-5 ng/ml in positive controls among a range of individuals. A 1:200 dilution of plasma for all samples has been sufficient in our experiments for ELISA results to fall on the linear range of the ELISA standard curves. It may be necessary to optimize standard dilutions if you observe differences in the whole blood assay. Nerad, J. L. et al., J. Leukocyte Biol., 52, pp. 687-692 (1992).

ICE = biological target: T1, ICE (Homo sapiens, UniProt P29466); assay: Enzyme assay with UV-visible substrate (visible ICE assay, Succinyl-Tyr-Val-Ala-Asp-pNitroanilide); type: biochemical
T1 sequence (P29466 120-297 limits assumed): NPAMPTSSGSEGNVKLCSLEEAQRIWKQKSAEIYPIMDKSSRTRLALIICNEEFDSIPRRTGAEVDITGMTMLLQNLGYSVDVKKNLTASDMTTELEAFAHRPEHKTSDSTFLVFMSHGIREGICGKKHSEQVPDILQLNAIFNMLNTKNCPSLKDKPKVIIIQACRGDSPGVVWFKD
T1 sequence (P29466 317-404 limits assumed): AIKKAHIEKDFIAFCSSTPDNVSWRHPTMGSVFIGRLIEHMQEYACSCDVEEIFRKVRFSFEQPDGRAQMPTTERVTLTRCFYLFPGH
Outline: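 ICE preincubated with inhibitor in DMSO for 15 min at room temperature, then Suc-Tyr-Val-Ala-Asp-pNA added. pNA release read at 405-603 nm for 20 min at 37 °C, rate from linear fit in mOD/min. Ki and inhibition mode from fits of rates at varying inhibitor concentrations to standard kinetic equations.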

[1] = Homo sapiens, * = values obtained upon reassay

IC50 (IL-1β, human whole blood; Homo sapiens, Table 17): 3000 nM
SMILES: COCC(=O)N1C[C@H](NC(=O)c2cc(Cl)c(O)c(Cl)c2)C(=O)N(CC(=O)N[C@H]2CC(=O)OC2OCc2ccccc2)c2ccccc21 (mixture of isomers) [Compound 688a, (3S)-2-Oxo-3-(3,5-dichloro-4-hydroxybenzoyl)amino-5-methoxyacetyl-N-[(2RS,3S)-benzyloxy-5-oxo-tetrahydrofuran-3-yl]-2,3,4,5-tetrahydro-1H-1,5-benzodiazepine-1-acetamide]

IC50 (IL-1β, human whole blood; Homo sapiens, Table 17): 1300 nM
SMILES: COCC(=O)N1C[C@H](NC(=O)c2cc(C)c(O)c(C)c2)C(=O)N(CC(=O)N[C@H]2CC(=O)OC2OCc2ccccc2)c2ccccc21 (mixture of isomers) [Compound 688b, (3S)-2-Oxo-3-(3,5-dimethyl-4-hydroxybenzoyl)amino-5-methoxyacetyl-N-[(2RS,3S)-benzyloxy-5-oxo-tetrahydrofuran-3-yl]-2,3,4,5-tetrahydro-1H-1,5-benzodiazepine-1-acetamide]

IC50 (IL-1β, human whole blood; Homo sapiens, Table 17): 1600 nM
SMILES: Cc1cc(C(=O)N[C@H]2CN(C(=O)CO)c3ccccc3N(CC(=O)N[C@H]3CC(=O)OC3OCc3ccccc3)C2=O)cc(C)c1O (mixture of isomers) [Compound 690a, (3S)-2-Oxo-3-(3,5-dimethyl-4-hydroxybenzoyl)amino-5-hydroxyacetyl-N-[(2RS,3S)-benzyloxy-5-oxo-tetrahydrofuran-3-yl]-2,3,4,5-tetrahydro-1H-1,5-benzodiazepine-1-acetamide]

More lines, now with the values behind:

SMILES: CC(=O)N1C[C@H](NC(=O)c2cc(C)c(O)c(C)c2)C(=O)N(CC(=O)N[C@H]2CC(=O)OC2OCc2ccccc2)c2ccccc21 (mixture of isomers) [Compound 670, (3S)-2-Oxo-3-(3,5-dimethyl-4-hydroxybenzoyl)amino-5-acetyl-N-[(2RS,3S)-benzyloxy-5-oxo-tetrahydrofuran-3-yl]-2,3,4,5-tetrahydro-1H-1,5-benzodiazepine-1-acetamide]
IC50 (IL-1β, human whole blood; Homo sapiens, Table 17): 4500 nM

SMILES: CC(=O)OCC(=O)N1C[C@H](NC(=O)c2ccccc2)C(=O)N(CC(=O)N[C@H]2CC(=O)OC2OCc2ccccc2)c2ccccc21 (mixture of isomers) [Compound 682, (3S)-2-Oxo-3-benzoylamino-5-(2-acetoxy)acetyl-N-[(2RS,3S)-benzyloxy-5-oxo-tetrahydrofuran-3-yl]-2,3,4,5-tetrahydro-1H-1,5-benzodiazepine-1-acetamide]
IC50 (IL-1β, human whole blood; Homo sapiens, Table 17): 1300 nM

SMILES: CN(C)c1cccc(C(=O)N[C@H]2CCC(=O)N3CCC[C@@H](C(=O)N[C@H]4CC(=O)OC4OCc4ccccc4)N3C2=O)c1 (mixture of isomers) [Compound 213g, [1S,9S (2RS,3S)]9-[(3-Dimethylaminobenzoyl)amino]-6,10-dioxo-1,2,3,4,7,8,9,10-octahydro-N-(2-Benzyloxy-5-oxotetrahydrofuran-3-yl)-6H-pyridazino[1,2-a][1,2]diazepine-1-carboxamide]
IC50 (IL-1β, human whole blood; Table 17): 2200 nM

SMILES: CCOC1OC(=O)C[C@@H]1NC(=O)[C@@H]1CCCN2C(=O)CC[C@H](NC(=O)c3nccc4ccccc34)C(=O)N12 (mixture of isomers) [Compound 550q, [1S,9S(2RS,3S)]N-(2-Ethoxy-5-oxotetrahydrofuran-3-yl)-6,10-dioxo-9-(isoquinolin-1-oylamino)-1,2,3,4,7,8,9,10-octahydro-6-H-pyridazino[1,2-a][1,2]diazepine-1-carboxamide]
IC50 (IL-1β, human whole blood; Table 17): 700 nM

SMILES: CCOC1OC(=O)C[C@@H]1NC(=O)CN1C(=O)[C@@H](NC(=O)c2cc(C)c(O)c(C)c2)CN(C(=O)CO)c2ccccc21 (mixture of isomers) [Compound 692b, (3S)-2-Oxo-3-(3,5-dimethyl-4-hydroxybenzoyl)amino-5-hydroxyacetyl-N-[(2RS,3S)-ethoxy-5-oxo-tetrahydrofuran-3-yl]-2,3,4,5-tetrahydro-1H-1,5-benzodiazepine-1-acetamide]
IC50 (IL-1β, human whole blood; Table 17): 1800 nM

SMILES: CC(C)(C)OC(=O)C[C@@H](C=NOCCc1ccccc1)NC(=O)[C@@H]1CCCN2C(=O)CC[C@H](NC(=O)c3ccccc3)C(=O)N12 [Compound 307b, [3S(1S,9S)3-(9-Benzoylamino-6,10-dioxo-1,2,3,4,7,8,9,10-octahydro-6H-pyridazino-[1,2-a][1,2]diazapine-1-carboxamido)-amino]-4-oxobutanoic acid t-butyl ester, O-(2-(phenyl)ethyl)oxime]
IC50 (IL-1β, human whole blood; * = values obtained upon reassay): 14000 nM
Ki (ICE; Table 5): 165 nM

SMILES: O=C[C@H](CC(=O)O)NC(=O)[C@@H]1CCCN2C(=O)CC[C@H](NC(=O)c3ncc[nH]3)C(=O)N12 [Compound 445]
IC50 (IL-1β, human whole blood; [1]): 4000 nM
Ki (ICE; Table 5): 135 nM

SMILES: O=C[C@H](CC(=O)O)NC(=O)[C@@H]1CCCN2C(=O)CC[C@H](NC(=O)c3cnns3)C(=O)N12 [Compound 446]
IC50 (IL-1β, human whole blood; [1]): 3000 nM
Ki (ICE; Table 5): 62 nM

SMILES: CC(=O)N(C)c1ccc(C(=O)N[C@H]2CCC(=O)N3CCC[C@@H](C(=O)N[C@H](C=O)CC(=O)O)N3C2=O)cc1 [Compound 448]
IC50 (IL-1β, human whole blood; [1]): 4000 nM
Ki (ICE; Table 5): 130 nM

SMILES: CC(=O)N1C[C@H](NC(=O)c2ccccc2)C(=O)N(CC(=O)N[C@H](C=O)CC(=O)O)c2c(C)cc(C)cc21 [Compound 605o, (3S)-3-[(3S)-2-Oxo-3-benzoylamino-5-acetyl-2,3,4,5-tetrahydro-7,9-dimethyl-1H-1,5-benzodiazepin-1-acetylamino]-4-oxo-butyric acid]
IC50 (IL-1β, human whole blood; [1]): 18000 nM
Ki (ICE; Table 5): 72 nM

SMILES: COc1c(Cl)cc(C(=O)N[C@H]2CN(C(C)=O)c3ccccc3N(CC(=O)N[C@H](C=O)CC(=O)O)C2=O)cc1Cl [Compound 669, (3S)-3-[(3S)-2-Oxo-3-(3,5-dichloro-4-methoxybenzoyl)amino-5-acetyl-2,3,4,5-tetrahydro-1H-1,5-benzodiazepine-1-acetylamino]-4-oxo-butyric acid]
IC50 (IL-1β, human whole blood; Homo sapiens, Table 17): 10000 nM
Ki (ICE; Table 17): 14 nM

SMILES: COc1cccc(OC)c1C(=O)C(=O)N[C@H]1CN(C(=O)CO)c2ccccc2N(CC(=O)N[C@H]2CC(=O)OC2OCc2ccccc2)C1=O (stereo partly drawn) [Compound 677, (3S)-2-Oxo-3-(1,6-dimethoxybenzoylformyl)amino-5-(2-hydroxy)acetyl-N-[(2RS,3S)-benzyloxy-5-oxo-tetrahydrofuran-3-yl]-2,3,4,5-tetrahydro-1H-1,5-benzodiazepine-1-acetamide]
IC50 (IL-1β, human whole blood; Homo sapiens, Table 17): 610 nM

SMILES: COCC(=O)N1C[C@H](NC(=O)c2cc(C)c(O)c(C)c2)C(=O)N(CC(=O)N[C@H](C=O)CC(=O)O)c2ccc(F)cc21 [Compound 689b-1, (3S)-3-[(3S)-2-Oxo-3-(3,5-dimethyl-4-hydroxybenzoyl)amino-5-methoxyacetyl-2,3,4,5-tetrahydro-7-fluoro-1H-1,5-benzodiazepine-1-acetylamino]-4-oxobutyric acid]
IC50 (IL-1β, human whole blood; Homo sapiens, Table 27): 2700 nM
Ki (ICE; Table 27): 3.5 nM

SMILES: Cc1cc(C(=O)N[C@H]2CN(C(=O)CO)c3ccccc3N(CC(=O)NC3CC(=O)OC3OCc3ccccc3)C2=O)cc(C)c1O (stereo partly drawn) [Compound 695c, (3S)-2RS-Oxo-3-(3,5-dimethyl-4-hydroxybenzoyl)amino-5-hydroxyacetyl-N-(2-benzyloxy-5-oxo-tetrahydrofuran-3-yl)-2,3,4,5-tetrahydro-1H-1,5-benzodiazepine-1-acetamide]
IC50 (IL-1β, human whole blood; Table 17): 2500 nM

SMILES: Nc1c(Cl)cc(C(=O)N[C@H]2CN(C(=O)CO)c3ccccc3N(CC(=O)N[C@H](C=O)CC(=O)O)C2=O)cc1Cl [Compound 697]
IC50 (IL-1β, human whole blood; Homo sapiens, Table 27): 5000 nM
Ki (ICE; Table 27): 1.8 nM

SMILES: O=C[C@H](CC(=O)O)NC(=O)CN1C(=O)[C@@H](NC(=O)c2nccc3ccccc23)CN(C=O)c2ccccc21 [Compound 698, (3S)-3-[(3S)-2-oxo-3-isoquinolin-1-oylamino-5-formyl-2,3,4,5-tetrahydro-1H-1,5-benzodiazepine-1-acetylamino]-4-oxobutyric acid]
IC50 (IL-1β, human whole blood; Homo sapiens, Table 27): 13500 nM
Ki (ICE; Table 27): 18 nM
